# Assay results as given in patent US9695159B2, “Process for preparation of canagliflozin” (Glenmark Pharmaceuticals Limited, priority 2014, dated 2017).
# Test: Hygroscopic study: water content by KF and description after exposure to 25° C./60% RH and 25° C./90% RH
# Type: physicochemical
# Experimental: Method for Measuring the Water Content
# About 10 g canagliflozin was exposed to 25° C. and 60% relative humidity and 25° C. and 90% relative humidity conditions. About 300 mg of sample was withdrawn each time at the timely intervals of 1 hr, 2 hrs, 4 hrs, 8 hrs, 12 hrs, 24 hrs and 48 hrs from the conditions and tested for description and water content by KF. The water content was calculated by the following formula: […]
# Results of Hygroscopic Study for Canagliflozin Obtained as Per Example 16
smiles,measurement,setting,value
"Cc1ccc([C@@H]2O[C@H](CO)[C@@H](O)[C@H](O)[C@H]2O)cc1Cc1ccc(-c2ccc(F)cc2)s1 [Canagliflozin, 1(S)-1,5-anhydro-1-[3[[5-(4-fluorophenyl)-2-thienyl]methyl]-4-methylphenyl]-D-glucitol]",Description,"25° C./60% RH, 1 hr",Off white
same,Moisture content by KF (%),"25° C./60% RH, 1 hr",2.22%
same,Description,"25° C./60% RH, 2 hrs",Off white
same,Moisture content by KF (%),"25° C./60% RH, 2 hrs",2.29%
same,Description,"25° C./60% RH, 4 hrs",Off white
same,Moisture content by KF (%),"25° C./60% RH, 4 hrs",2.33%
same,Description,"25° C./60% RH, 8 hrs",Off white
same,Moisture content by KF (%),"25° C./60% RH, 8 hrs",2.35%
same,Description,"25° C./60% RH, 12 hrs",Off white
same,Moisture content by KF (%),"25° C./60% RH, 12 hrs",2.39%
same,Description,"25° C./60% RH, 24 hrs",Off white
same,Moisture content by KF (%),"25° C./60% RH, 24 hrs",2.42%
same,Description,"25° C./60% RH, 48 hrs",Off white
same,Moisture content by KF (%),"25° C./60% RH, 48 hrs",2.49%
same,Description,"25° C./60% RH, Initial",Off white
same,Moisture content by KF (%),"25° C./60% RH, Initial",2.19%
same,Description,"25° C./90% RH, 1 hr",Off white
same,Moisture content by KF (%),"25° C./90% RH, 1 hr",2.36%
same,Description,"25° C./90% RH, 2 hrs",Off white
same,Moisture content by KF (%),"25° C./90% RH, 2 hrs",2.48%
same,Description,"25° C./90% RH, 4 hrs",Off white
same,Moisture content by KF (%),"25° C./90% RH, 4 hrs",2.52%
same,Description,"25° C./90% RH, 8 hrs",Off white
same,Moisture content by KF (%),"25° C./90% RH, 8 hrs",2.69%
same,Description,"25° C./90% RH, 12 hrs",Off white
same,Moisture content by KF (%),"25° C./90% RH, 12 hrs",2.87%
same,Description,"25° C./90% RH, 24 hrs",Off white
same,Moisture content by KF (%),"25° C./90% RH, 24 hrs",3.17%
same,Description,"25° C./90% RH, 48 hrs",Off white
same,Moisture content by KF (%),"25° C./90% RH, 48 hrs",3.48%
same,Description,"25° C./90% RH, Initial",Off white
same,Moisture content by KF (%),"25° C./90% RH, Initial",2.19%
"Cc1ccc([C@@H]2O[C@H](CO)[C@@H](O)[C@H](O)[C@H]2O)cc1Cc1ccc(-c2ccc(F)cc2)s1 [amorphous canagliflozin, 1(S)-1,5-anhydro-1-[3[[5-(4-fluorophenyl)-2-thienyl]methyl]-4-methylphenyl]-D-glucitol]",increase of moisture content,exposed for 48 hours to 25° C. and 60% relative humidity,≤ 0.4%
same,increase of moisture content,exposed for 48 hours to 25° C. and 90% relative humidity,≤ 0.4%
